Measured values from patent publication US7629376B2, “3-substituted-5- and 6-aminoalkyl indole-2-carboxylic acid amides and related analogs as inhibitors of casein kinase I” (Aventis Pharmaceuticals Inc., priority 2004, dated 2009).

Columns and labels:
casein kinase 1ε = target: T1, casein kinase 1ε (Homo sapiens, UniProt P49674); test: Casein Kinase Epsilon 33P-ATP Filter Plate Assay for Screening CK1ε Inhibitors; assay type: biochemical
T1 construct: made in house
Experimental: Casein Kinase Epsilon ^33P-ATP Filter Plate Assay for Screening CK1ε Inhibitors
Purpose: This assay measures the ability of compounds to inhibit the phosphorylation of the substrate casein by the enzyme casein kinase 1ε using an in vitro ^33P-ATP filtration assay.
The above are stored as 100 μL aliquots at minus 80° C. • Compounds: • Supply compounds for testing as frozen 10 mM compound stock dissolved in 100% DMSO. Assay Conditions: • Final total assay volume per well is equal to 50 μL that one prepares as follows: • 5 μL of diluted compound stock (10, 1, 0.1, 0.01 or 0.001 μM), • 5 μL of dephosphorylated casein final concentration 0.2 μg/μL, • 20 μL of CK1ε final concentration 3 ng/μL, and • 20 μL of γ-^33P-ATP final concentration 0.02 μCi/μL mixed with cold ATP (10 μM final). Methodology: • 1. Prepare 500 mL of fresh assay buffer: 50 mM Tris pH 7.5, 10 nm MgCl2, 2 mM DTT and 1 mM EGTA • 2. Obtain compounds to be evaluated as 10 μL of 10 mM stock dissolved in 100% DMSO. Use a Biomek 2000 liquid handling robot, make serial dilutions to yield 10, 1, 0.1, 0.01 and 0.001 μM final compound dilutions added as 5 μL additions to Falcon U bottom plates. […] A routine screening assay will consist of 32 compounds, which equals 4 assay plates. • 3.
• 4. Add 5 μL of compound as indicated, then add 5 μL of dephosphorylated casein (dissolved in distilled H20) (0.2 μg/μL) and 20 μL CK1ε (3 ng/μL) to the appropriate wells. • 5. Finally add 20 μL γ-^33P-ATP (0.02 μCi/μL)/10 μM cold ATP (equals approximately 2×10^6 CPM per well). • 6. Vortes the Falcon U-Bottom assay plate containing the above 50 μL reaction volume and then incubate at room temperature for 2 hours. • 7. At the end of 2 hours, stop the reaction by the addition of 65 μL of ice cold 2 mM cold ATP (made up in assay buffer) to the assay plates using a Beckman Multimek. • 8. At the same time add 25 μL 100% ice cold TCA made up in distilled H20 to a matching number of Millipore MAPH filter plates. • 9. Using a handheld 8-channel pipettor, transfer 100 μL of the reaction mixture from the Falcon U-Bottom Plate to the Millipore MAPH filter plates presoaked with TCA. • 10. Mix the Millipore MAPH filter plates gently and allow to sit at room temperature for at least 30 minutes to precipitate the proteins. • 11. After 30 minutes, place the filter plates on a Millipore vacuum manifold and filter at no more than 8 mm Hg as the MAPH filters tend to “air lock” at higher vacuum settings. • 12. […] Allow the plates to dry overnight at room temperature. The next day add 40 μL Packard Microscint-20 Scintillation Fluid per well using a Titertek Multidrop dispenser; seal the plates and count for 2 minutes/well in a Packard Topcount NXT Scintillation Counter (to provide CPM values/well). Calculation: • 1. Import Counts Per Minute (CPM) data into a proprietary data calculation and archiving database (Activity Base by IDBS version 5.0). • 2. Column 1 for each plate reflects total phosphorylation activity of the enzyme in the absence of any inhibiting compound and thus represents 100%. Column 12 reflects any nonspecific phosphorylation/retained radioactivity activity in the absence of inhibiting compound and enzyme. Typically one observes approximately 1% of Total CPMs that are “nonspecific”. • 3.

[1] = test system: Mper1-luc Rat-1 fibroblasts (P2C4); test: Cellular Circadian Assay (Mper1-luc reporter period lengthening); assay type: cell-based; conditions: effective micromolar concentration that induces a 1 hour lengthening of period
Experimental: Cellular Circadian Assay Experimental Procedures
Stable transfection: Co-transfect Rat-1 fibroblast cultures at 30-50% confluence with vectors containing the Zeocin resistance selectable marker for stable transfection and an mPer1 promoter-driven luciferase reporter gene. After 24-48 hours, split the cultures onto 96 well plates and maintain in growth media supplemented with 50-100 μg/mL Zeocin (Invitrogen #45-0430) for 10-14 days. Assess Zeocin-resistant stable transfectants for reporter expression by supplementing growth media with 100 μM luciferin (Promega #E1603) and assaying luciferase activity on a TopCount scintillation counter (Packard Model #C384V00). […] Select Mper1-luc Rat-1 fibroblasts clone P2C4 for compound testing.
After synchronization, rinse cultures with 100 μL EMEM (Cellgro #10-010-CV) for 10 minutes at room temperature. […] Add compounds to be tested for circadian effects to CO2-independent media in 0.3% DMSO (final concentration).
Estimate in vivo luciferase activity by measuring relative light output on a TopCount scintillation counter (Packard Model #C384V00). Transfer plates from incubator to reader using an ORCA robotic arm (Beckman Instruments) and SAMI-NT automated scheduling software (Version 3.3; SAGIAN/Beckman Instruments).
Data Analysis Use Microsoft Excel and XLfit (Version 2.0.9; IDBS) to import, manipulate and graph data. Perform period analysis either by determining the interval between relative light output minima over several days or by Fourier Transform. […] Analyze the data by fitting a hyperbolic curve to the data expressed as period change (y-axis) versus the concentration of test compound (x-axis) in XLfit and interpolate the EC ? t+1h from this curve.

T1 sequence (P49674 whole entry): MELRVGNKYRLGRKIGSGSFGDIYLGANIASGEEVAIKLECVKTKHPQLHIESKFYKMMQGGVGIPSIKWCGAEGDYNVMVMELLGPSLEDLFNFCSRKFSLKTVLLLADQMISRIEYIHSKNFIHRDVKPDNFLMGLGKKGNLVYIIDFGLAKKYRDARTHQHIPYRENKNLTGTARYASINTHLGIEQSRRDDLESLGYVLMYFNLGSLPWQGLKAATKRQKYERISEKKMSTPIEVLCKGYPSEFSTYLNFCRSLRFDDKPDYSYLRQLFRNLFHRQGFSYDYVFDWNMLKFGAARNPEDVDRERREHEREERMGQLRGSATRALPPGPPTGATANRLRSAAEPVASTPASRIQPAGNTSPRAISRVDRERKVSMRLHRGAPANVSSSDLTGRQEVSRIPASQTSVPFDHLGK

Row | melting point | SMILES | Ki (casein kinase 1ε) | Cell Assay ECΔτ1h [1]
1 | 192.7 to 193.6 °C | CC(CO)NCc1ccc2[nH]c(C(N)=O)c(Sc3ccccc3)c2c1 (centres unmarked) [Ix, 5-[(2-Hydroxy-1-methyl-ethylamino)methyl]-3-phenylsulfanyl-1H-indole-2-carboxylic acid amide] | 130 nM | 
2 |  | NC(=O)c1[nH]c2ccc(CNC3CC4CCC3C4)cc2c1Sc1ccccc1 (centres unmarked) [It] | 450 nM | 2.70 µM
3 |  | NC(=O)c1[nH]c2ccc(CN3CCN(c4ncccn4)CC3)cc2c1Sc1ccccc1 [Ip, 3-Phenylsulfanyl-5-(4-pyrimidin-2-yl-piperazin-1-ylmethyl)-1H-indole-2-carboxylic acid amide] | 74 nM | 1.87 µM
4 |  | NCc1ccc2[nH]c(C(N)=O)c(Sc3ccccc3)c2c1 [Ia, 5-Aminomethyl-3-phenylsulfanyl-1H-indole-2-carboxylic acid amide] | 70 nM | 0.44 µM
5 |  | NC(=O)c1[nH]c2ccc(CNc3ccccc3F)cc2c1Sc1ccccc1 [Iai, 5-[(2-Fluorophenylamino)methyl]-3-phenylsulfanyl-1H-indole-2-carboxylic acid amide] | 6850 nM | 6.91 µM
6 |  | NC(=O)c1[nH]c2ccc(CN3CCCNCC3)cc2c1Sc1ccccc1 [Is, 5-[1,4]Diazepan-1-ylmethyl-3-phenylsulfanyl-1H-indole-2-carboxylic acid amide] | 120 nM | 7.85 µM
7 | 118 to 121 °C | CC(C)(C)OC(=O)NCc1ccc2c(Sc3ccccc3)c(C(N)=O)[nH]c2c1 [IIb, (2-Carbamoyl-3-phenylsulfanyl-1H-indol-6-ylmethyl)-carbamic acid tert-butyl ester] | 2330 nM | 
